Reference: paper PMC9684134, “In vitro biochemical assessment of mixture effects of two endocrine disruptors on INS-1 cells” (Scientific Reports, 2022)
Where two headings read alike, the source gives them in different places.

Key:
INS-1 cells [1] = experiment: Glucose uptake assay (glucose oxidase); format: cell-based, rat; conditions: Table 3 summary, low and high concentration, 48 h
Experimental: Glucose uptake was determined in INS-1 cells by monitoring the levels of glucose remaining in the culture medium after a selected treatment period. The cell density was 30 000 per well; one row was without cells to serve as maximum glucose content. Spent medium was removed and the cells were treated with 100 µL of the test compounds at concentrations indicated in section “Treatment of INS-1 cells”. The cells were incubated for a further 48 h and 5µL spent culture medium was thereafter transferred to a new plate of 96 wells and 200 µL glucose oxidase reagent added. Incubation was at 37 °C for 20 min and absorbance was read at 520 nm. Glucose uptake was obtained as the difference in glucose concentration between wells without cells and those with cells and respective treatments.

INS-1 cells [2] = experiment: Glucose stimulated calcium influx (Fluo-4); format: cell-based, rat; conditions: 20 mM glucose stimulation; for Intracellular calcium levels (summary): Table 3 summary, 24 h incubation; for Glucose stimulated intracellular calcium flux compared with the Blank: positive controls
Experimental: Fluo-4 dye is specific for intracellular Ca^2+ concentration. On binding calcium, the green fluorescence intensity increases by more than 100 folds (excitation/emission 494/[…]). Incubation was for 24 h. Staining solution was prepared by adding 20 µL Flou-4 stock solution (1 mM in DMSO) and 2 µL Hoechst solution to 10 mL of PBS. After staining, incubation was done for 30 min at 37 °C. The stain solution was removed and replaced with 50 µL PBS. Incubation was further carried out at room temperature for 20 min. Difference in fluorescence intensity between wells containing glucose and those without glucose represents calcium influx in response to glucose. Just prior to image acquisition, 20 mM glucose was added to four of the eight replicate wells and incubated at room temperature for 10 min. Image acquisition and data analyses were done as usual. Filter sets appropriate for DAPI and FITC were also used. Diazoxide and Glibenclamide were used as the positive controls.

HepG2 human liver cells = tested on: HepG2 human liver cells; set-up: method as in PMID 27459410; conditions: cited from earlier work
INS-1 cells [3] = format: cell-based, rat; conditions: for Annexin PI: mode of cell death (summary): Table 3 summary
Experimental: The treated cells were sub-cultured at 4:3. Annexin V-FITC staining assay was performed as recommended by the manufacturer. Melphalan (Mel) and Etoposide (Etop) served as the positive controls. Incubation lasted 48 h. The spent medium was removed and 50 µL PI staining solution was in each well and incubated for 15 min at 37 °C followed by image acquisition and data analysis as in previous experiments. Images from nine sites per well were acquired using filter sets appropriate for DAPI, FITC and Texas red dyes.

[4] = tested on: caspase 3 activation in INS-1 cells; experiment: Caspase-3 activation assay; format: cell-based, rat; conditions: 48 h
Experimental: Additional 100 µL test compounds were solubilized in the medium and incubated for 48 h. The spent medium was replaced with 100 µL of fix solution (4% formaldehyde in phosphate-buffered saline (PBS) and was fixed overnight; the cells were permeabilized with ice cold methanol, then washed with PBS and blocked using 1% BSA followed by incubation with the primary antibody at 1:200 dilution in blocking buffer for 2 h. The excess antibody was removed by washing with blocking buffer. Incubation was thereafter carried out with secondary antibody (FITC labelled) for 30 min and later washed with blocking buffer to remove excess antibody. Images from nine sites per well were acquired using filter sets appropriate for DAPI and FITC. Image analysis was done as in previous experiments.

INS-1 cells [5] = experiment: Oxidative stress: ROS by CellROX orange staining; format: cell-based, rat; conditions: Table 3 summary, low and high concentration, 48 h
Experimental: (§1) The spent medium in section “Treatment of INS-1 cells” was removed and 50 µL CellROX staining solution was added to each well according to the manufacturer’s instructions and incubated at 37 °C for 30 min. Images from nine sites per well were acquired using filter sets appropriate for DAPI (4′, 6-diamidino-2-phenylindole) and TRITC (tetramethylrhodamine-isothiocyanate) which were the fluorophors. Image acquisition was done on ImageXpress Micro XLS and analyzed using the Multi-Wavelength Scoring software (Molecular Devices). In another experiment 50 µL ThiolTracker Violet staining solution was put in each well and incubated at 37 °C for 20 min. Images from nine sites per well were acquired using filter sets appropriate for DAPI and CY5 (amine reactive fluorescent dye). Image acquisition and data analysis were as done for the CellROX orange reagent. Excitation/Emission wavelength was at 545/565 nm.

INS-1 cells [6] = experiment: Glucose-galactose cytotoxicity assay (MTT); conditions: for IC50: Rattus norvegicus, INS1, 48 h
Experimental: Sub-culturing was in ratio 4:3. Cell density was 15,000 cells/well and treated with 200 µL of the test solution that was solubilized in glucose-free RPMI medium supplemented with 5 mM glucose or 5 mM galactose. The cells were incubated further for 48 h. The spent medium was replaced with 100 µL glucose in RPMI medium. 2,4-dinitrophenol served as positive control. The cells were finally loaded with MTT as in section “Cell viability assay” but incubation took 120 min.

INS-1 cells [7] = experiment: Mitochondrial membrane potential (TMRE staining); conditions: 48 h
Experimental: (§2) TMRE is a cell permeable cationic dye that accumulates in the mitochondrial matrix according to mitochondrial membrane potential (ΔψM). Staining solution was prepared by adding 5 mL PBS, 50 µL TMRE working solution and 2 µL Hoechst 33342 solution to 5 mL of RPMI. The spent medium was removed and 50 µL staining solution was put in each well and incubated for 30 min at 37 °C. Image acquisition and data analysis were done as indicated.

INS-1 cells [8] = experiment: Mitochondrial mass (MitoTracker Green staining); format: cell-based, rat; conditions: 48 h; for Mitochondrial mass (summary): Table 3 summary, all concentrations
Experimental: Staining solution consisted of 10 mL of PBS to which was added 1 µL MitoTracker Green (MTG) stock (1 mM in DMSO) and 2 µL Hoechst solution (10 mg/mL in DMSO). Spent medium was removed and 50 µL staining solution added to each well (96 wells) followed by incubation at 37 °C for 20 min.

INS-1 cells [9] = experiment: Oxidative stress: reduced glutathione by ThiolTracker Violet staining; format: cell-based, rat; conditions: 48 h; for Glutathione levels (oxidative stress summary): Table 3 summary, low and high concentration
Experimental: as §1

[10] = Cell viability assay (MTT); format: cell-based; conditions: rat
Experimental: INS-1 cells were routinely grown at 5% CO2, 95% air at 37 °C in RPMI-1640 containing 11.1 mM glucose and supplemented with 10% foetal calf serum (FCS), 1 mM pyruvate, 10 mM 4-(2-hydroxyethyl)-1-piperazine ethane sulphonic acid (HEPES), 50 µM 2-mercaptoethanol, 100 U penicillin/mL and 100 µg streptomycin/mL. Sub-confluent cultures were trypsinized to dislodge the cells and sub-cultured at a ratio of 1:3 or 1:0.75 in other experiments. INS-1 cells were seeded into a 96-well plate at densities of 10 000, 15 000 or 30,000 cells/well. They were allowed to attach at 37 °C overnight.
The cells were incubated for 48 h with test compounds containing 20 µM or 30 µM 4-tOP and 8 µM or 12.5 µM TCS. Combination treatments (4-tOP + TCS) were 12.5 µM or 25 µM at 1:1 ratio.
Cell viability was assessed by a principle of enzymatic reduction of 3-[4, 5-dimethylthiazole-2-yl]-2, 5-diphenyltetrazolium bromide (MTT) to formazan. The treated cells respectively were loaded with 20 µL 0.5 mg/mL MTT and incubated at 37 °C for 3 h. […] The absorbance of the purple-coloured formazan was measured at 540 nm on microplate reader. IC50, (the median inhibitory concentration) was calculated with GraphPad Prism software. Data were expressed as a percentage of control.
Results were expressed as means ± SD from at least three replicate measurements. The difference between means was analyzed with ANOVA, α value = 0.05. […]

[11] = set-up: method as in PMID 9894786; conditions: Ca2+-dependent binding to phosphatidylserine; cited from earlier work
INS-1 cells [12] = tested on: INS-1 cells
Experimental: as §2

[13] = high concentration (12.5 µM TCS, 30 µM 4-tOP, 25 µM Mix), 48 h
[14] = low concentration (8 µM TCS, 20 µM 4-tOP, 12.5 µM Mix), 48 h

Oc1cc(Cl)ccc1Oc1ccc(Cl)cc1Cl [Triclosan]
Glucose uptake (summary) (INS-1 cells [1]): Decreased glucose consumption at high concentration, increase at low concentration but not substantial compared with Blank | Intracellular calcium levels (summary) (INS-1 cells [2]): The reduction in glucose stimulated intracellular calcium flux was not substantial | IC50 (HepG2 human liver cells): 24.5 µM | Annexin PI: mode of cell death (summary) (INS-1 cells [3]): TCS induced cell death by apoptosis | Proportion of cells died by apoptosis (INS-1 cells [3]; high concentration (12.5 µM TCS, 25 µM Mix), 48 h): 16.6% | Proportion of live cells (INS-1 cells [3]; [13]): 43.7% | Proportion of live cells (INS-1 cells [3]; [14]): 81.2% | Caspase 3 activation compared with the Blank ([4]; test substances): Increase in caspase 3 activation not substantial | ROS (oxidative stress summary) (INS-1 cells [5]): Dose dependent increase in ROS but variation high hampering statistical significance | IC50 (INS-1 cells [6]; read-out: IC50 Galactose): 8.23 µM | IC50 (INS-1 cells [6]; read-out: IC50 Glucose): 11.7 µM | Glucose-galactose differential cytotoxicity (summary) (INS-1 cells [6]; Table 3 summary): Increased cytotoxicity in galactose medium indicative of potential mitochondrial toxicity | Mitochondrial membrane potential MMP (summary) (INS-1 cells [7]; Table 3 summary): Significant decrease in MMP at the high concentration. only | Mitochondrial membrane potential ΔΨM (MMP) compared to the Blank (INS-1 cells [7]; high concentration (12.5 µM TCS, 25 µM Mix)): Significant loss of mitochondrial membrane potential | Mitochondrial mass (summary) (INS-1 cells [8]): No substantial change in mitochondrial content at all the concentrations relative to the untreated cells | Glutathione levels (oxidative stress summary) (INS-1 cells [9]): Decreased glutathione levels corroborated ROS production | GSH compared with the Blank (INS-1 cells [9]; high concentration (12.5 µM TCS)): significant reduction of GSH | IC50 at 48 h ([10]; INS-1 cells, MTT, 48 h, read-out: IC50 for cytotoxicity against INS-1 cells): 12.7 µM

COc1ccc(Cl)cc1C(=O)NCCc1ccc(S(=O)(=O)NC(=O)NC2CCCCC2)cc1 [Glibenclamide, reference compound]
Glucose stimulated intracellular calcium flux compared with the Blank (INS-1 cells [2]): significantly increased intracellular calcium flux

CC1=NS(=O)(=O)c2cc(Cl)ccc2N1 [Diazoxide, reference compound]
Glucose stimulated intracellular calcium flux compared with the Blank (INS-1 cells [2]): significantly increased intracellular calcium flux

COc1cc([C@@H]2c3cc4c(cc3[C@@H](O[C@@H]3O[C@@H]5CO[C@@H](C)O[C@H]5[C@H](O)[C@H]3O)[C@H]3COC(=O)[C@H]23)OCO4)cc(OC)c1O [Etoposide, reference compound]
Proportion of cells died by apoptosis (INS-1 cells [3]; positive control 40 µM, 48 h): 17.4% | Proportion of live cells (INS-1 cells [3]; positive control 40 µM, 48 h): 42.5% | Caspase 3 activation compared with the Blank ([4]; positive control 40 µM): significant increases in caspase 3 activation | GSH compared with the Blank (INS-1 cells [9]; positive control 40 µM): significant reduction of GSH

N[C@@H](Cc1ccc(N(CCCl)CCCl)cc1)C(=O)O [Melphalan, reference compound]
Proportion of cells died by apoptosis (INS-1 cells [3]; positive control 40 µM, 48 h): 15.7% | Proportion of live cells (INS-1 cells [3]; positive control 40 µM, 48 h): 34.5% | Mitochondrial membrane potential ΔΨM (MMP) compared to the Blank (INS-1 cells [7]; positive control 40 µM): Significant loss of mitochondrial membrane potential | Mitochondrial mass relative to the Blank (INS-1 cells [8]; positive control 40 µM): significantly increased mitochondrial mass | GSH compared with the Blank (INS-1 cells [9]; positive control 40 µM): significant reduction of GSH

Annexin V: 35 kDa Ca2+-dependent phospholipid binding protein used to detect phosphatidylserine
Kd [11]: 0.007 µM

O=[N+]([O-])c1ccc(O)c([N+](=O)[O-])c1 [2,4-Dinitrophenol, 2,4-dinitrophenol, reference compound]
IC50 (INS-1 cells [6]; read-out: IC50 Galactose): 24.5 µM | IC50 (INS-1 cells [6]; read-out: IC50 Glucose): 46 µM

CC(C)(C)CC(C)(C)c1ccc(O)cc1 [4-tert-Octylphenol]
Glucose uptake (summary) (INS-1 cells [1]): Consumption pattern as with T. No significant change in glucose consumption | Intracellular calcium levels (summary) (INS-1 cells [2]): No significant changes in glucose stimulated intracellular calcium levels | Induction of apoptosis compared with the Blank (INS-1 cells [3]; 20 µM or 30 µM, 48 h): failed to significantly induce apoptosis | Annexin PI: mode of cell death (summary) (INS-1 cells [3]): Cell death by 4-tOP was by necrosis | Proportion of live cells (INS-1 cells [3]; [13]): 73.8% | Cell death by necrosis compared with the Blank (INS-1 cells [3]; high concentration (30 µM 4-tOP), 48 h): significantly underwent necrosis | Proportion of live cells (INS-1 cells [3]; [14]): 81.4% | Caspase 3 activation compared with the Blank ([4]; test substances): Increase in caspase 3 activation not substantial | ROS (oxidative stress summary) (INS-1 cells [5]): Dose dependent increase in ROS but variation high hampering statistical significance | IC50 (INS-1 cells [6]; read-out: IC50 Galactose): 34.5 µM | IC50 (INS-1 cells [6]; read-out: IC50 Glucose): 33.4 µM | Glucose-galactose differential cytotoxicity (summary) (INS-1 cells [6]; rat, 48 h): Higher IC50 in galactose than in glucose | Mitochondrial mass (summary) (INS-1 cells [8]): No substantial change in mitochondrial content at all concentrations relative to the untreated cells | Mitochondrial membrane potential MMP (summary) (INS-1 cells [12]): The increase in MMP was not substantial | Glutathione levels (oxidative stress summary) (INS-1 cells [9]): Decrease glutathione levels corroborated ROS production | IC50 at 48 h [10]: 32.5 µM
